Tested on: TGF–β1–induced NHLF myofibroblasts
Assay: HCA, NHLF myofibroblast reversal assay
Format: cell-based
Settings: Homo sapiens; reversal assay: 24 h 5 ng/ml TGF–β1, washed, 72 h compound
Method: Each well of a 384–well clear bottom microtiter plate was coated with 0.1% laminin solution for 60 min at 37°C and rinsed once with PBS. NHLF cells were seeded at a density of 750 cells / well in a volume of 40 μl FGM–2 medium and grown for 24 h at 37°C, 5% CO2 and 95% relative humidity. The plate was washed 3 times with starvation medium, e.g. fibroblast basal medium (FBM, Lonza) supplemented with 0.1% faf BSA, 100 units / ml of penicillin and 100 μg / ml of streptomycin and 250 ng / ml amphotericin B, and then starved for 24 h in 30 μl volume. NHLF were differentiated into myofibroblasts by incubation with 5 ng / ml TGF–β1 (from a stock of 20 μg / ml in 4 mM HCl, 1 mg / ml BSA) for 48 h. Compounds were prepared as 5x stocks in starvation medium and added to the starved cells to a final 1x concentration concomitant with TGF–β1 addition. The final DMSO concentration in the assay was 0.6% in all wells. 48 h after TGF–β1 addition, the medium was removed and the cells were fixed in methanol for 10 min at room temperature (RT). After fixation, cells were washed 3 times with 1 x PBS and either stored at 4°C for up to 3 days or further processed. The fixed cells were blocked with 10% goat serum in PBS, 0.25% Tween–20 for 60 min at RT. The primary antibodies, i.e., mouse monoclonal anti–α–SMA (Sigma–Aldrich) and rabbit anti–FN antibody (Sigma–Aldrich), were diluted 1:400 in 10% goat serum in PBS, 0.25% Tween–20 and the fixed cells were incubated with the antibodies for 60 min at RT. After washing the cells 3 times with 1 x PBS, 0.25% Tween–20 the detection antibodies, i.e., goat anti–mouse AlexaFluor 488 (Invitrogen) and goat anti–rabbit AlexaFluor 647 (Invitrogen) were diluted 1:1000 in 1 x PBS, 0.25% Tween–20 and incubated for 1 h at RT together with 1 μg / ml DAPI to stain nuclei and HCS CellMask Orange Stain to label the entire cell. The stained cells were washed 3 times with 1 x PBS containing 0.25% Tween–20, followed by three washes in 1 x PBS, sealed with backing tape and stored at 4°C. Images were acquired on the Opera Phenix confocal high–content screening system (Perkin Elmer) using the 20–x water immersion lens.
Image analysis: The image data acquired with the HCS system were uploaded to ORBIT, an open source image analysis software developed at Idorsia Pharmaceuticals Ltd (http://www.orbit.bio), and analyzed using 288 CPUs in parallel on our computing grid with the ORBIT Cell–Classifier framework using an appropriate CellProfiler pipeline. DAPI stained nuclei were used to identify cells. α–SMA and FN regions were then identified and mapped to the corresponding nuclei for background correction, cell segmentation and cell feature computation to identify, classify and weigh over 400 features per cell. The computed features (S1 Table) comprise, but are not limited to, granularity, intensity, texture, area, shape and solidity of a cell in both α–SMA–and FN–expressing regions. The 0% compound effect (5 ng / ml TGF–β1) and the 100% compound effect (0 ng / ml TGF–β1) controls, were used to train and validate a support vector machine (SVM), a supervised learning model with associated learning algorithm that, once successfully validated, was applied to every cell in every well of the assayed microtiter plate. The SVM allowed autonomous weighting and classification of the characteristics and thus enabled the classifier to decide which characteristics were most relevant for the differentiation of the cell types. […] The classification of each cell was aggregated to a cell type ratio per well, represented as the computed percentage effect value per well indicative of the degree of myofibroblast differentiation. E.g. 100% equals complete myofibroblast differentiation, 0% indicates a pure fibroblast population without any signs of differentiation.
To identify compounds with potential to revert differentiated myofibroblasts to fibroblasts the assay procedures were modified.

How did the IC50 turn out when CCCCC[C@H](O)/C=C/[C@H]1[C@H](O)CC(=O)[C@@H]1CCCCCCC(=O)O [Alprostadil] was run?
Its IC50 is 0.28 µM.

Which IC50 does the source give for C[C@]12CC[C@H](O)C[C@H]1CC[C@@H]1[C@@H]2C[C@@H](O)[C@]2(C)[C@@H](C3=CC(=O)OC3)CC[C@]12O [Digoxigenin] here?
Its IC50 is 0.076 µM.

Cc1cccc(-c2[nH]c(CNc3ccccc3F)nc2-c2ccc3ncnn3c2)n1 [EW–7197] was tested. Which IC50 did it give?
Its IC50 is 18 µM.

For CC(C)(C)c1ccc(CN(Cc2cccc(OCC(=O)O)c2)S(=O)(=O)c2cccnc2)cc1 [Evatanepag], which IC50 is on record?
The IC50 was 2.3 µM.

With O=C(CC1NCCCC1O)Cn1cnc2cc(Br)c(Cl)cc2c1=O (stereo not shown) [Halofuginone] as the compound, how does the IC50 read?
The IC50 was 0.12 µM.

How did the IC50 turn out when COC(=O)c1ccc2c(c1)NC(=O)/C2=C(\Nc1ccc(N(C)C(=O)CN2CCN(C)CC2)cc1)c1ccccc1 [Nintedanib] was run?
The IC50 was 6.9 µM.

How did the IC50 turn out when CCCCC[C@H](O)/C=C/[C@H]1[C@H](O)CC(=O)[C@@H]1C/C=C\CCCC(=O)O [PGE2, prostaglandin E2] was run?
Its IC50 is 0.145 µM.

Tested on: TGF–β1–induced NHLF myofibroblasts
Assay: cells
Format: cell-based
Settings: Homo sapiens; reversal assay; impedance at t = 72 h post TGF–β1; n = 2
Method: To measure dynamic cell shape and adhesion changes during fibrotic transdifferentiation, NHLF were seeded at a density of 20,000 cells per well in FGM–2 growth medium (Lonza) containing 100 units / ml of penicillin and 100 μg / ml of streptomycin into E–plates with continued impedance signal measurement (xCELLigence system, Roche Applied Science). After overnight growth, the medium was exchanged for FBM (Lonza) supplemented with 100 units / ml of penicillin and 100 μg / ml of streptomycin and 0.1% faf BSA and cells were starved for 32 h. Compound dilution series were added and myofibroblast transition was induced by adding TGF–β1 at a concentration of 5 ng / ml, followed by continued impedance sampling for up to 48 h. For data analysis, impedance raw traces were normalized to the time point of compound addition and the baseline response (DMSO, non–TGF–β1 treated cells) was subtracted. In some cases, impedance values at defined time points were used to generate concentration–response curves to determine compound potency and efficacy using GraphPad Prism software version 7 (GraphPad Software Inc).
To identify compounds with potential to revert differentiated myofibroblasts to fibroblasts the assay procedures were modified. After 24 h starvation, NHLF cells were stimulated with 5 ng / ml TGF–β1 for 24 h. At t = 24 h TGF–β1 was removed and either vehicle (DMSO) or compounds were added and incubated with the cells for a further 72 h.

Cc1cccc(-c2[nH]c(CNc3ccccc3F)nc2-c2ccc3ncnn3c2)n1 [EW–7197] was tested. Which IC50 did it give?
Its IC50 is 0.047 ± 0.001 µM.

Same assay, conditions: human, 72 h

With O=C(CC1NCCCC1O)Cn1cnc2cc(Br)c(Cl)cc2c1=O (stereo not shown) [Halofuginone] as the compound, how does the cytotoxic concentration read?
Its cytotoxic concentration is ≥ 10’000 nM.

Same assay, conditions: reversal assay: 24 h 5 ng/ml TGF–β1, washed, then compound; impedance data at t = 20 h

For CCCCC[C@H](O)/C=C/[C@H]1[C@H](O)CC(=O)[C@@H]1CCCCCCC(=O)O [Alprostadil], which IC50 is on record?
The IC50 was 0.0009 ± 0.0002 µM.

For C[C@]12CC[C@H](O)C[C@H]1CC[C@@H]1[C@@H]2C[C@@H](O)[C@]2(C)[C@@H](C3=CC(=O)OC3)CC[C@]12O [Digoxigenin], which IC50 is on record?
The IC50 was 0.14 µM.

How did the IC50 turn out when Cc1cccc(-c2[nH]c(CNc3ccccc3F)nc2-c2ccc3ncnn3c2)n1 [EW–7197] was run?
Its IC50 is over 10 µM.

CC(C)(C)c1ccc(CN(Cc2cccc(OCC(=O)O)c2)S(=O)(=O)c2cccnc2)cc1 [Evatanepag] was tested. Which IC50 did it give?
Its IC50 is 0.014 µM.

For O=C(CC1NCCCC1O)Cn1cnc2cc(Br)c(Cl)cc2c1=O (stereo not shown) [Halofuginone], which IC50 is on record?
The IC50 was over 1 µM.

For COC(=O)c1ccc2c(c1)NC(=O)/C2=C(\Nc1ccc(N(C)C(=O)CN2CCN(C)CC2)cc1)c1ccccc1 [Nintedanib], which IC50 is on record?
Its IC50 is over 10 µM.

CCCCC[C@H](O)/C=C/[C@H]1[C@H](O)CC(=O)[C@@H]1C/C=C\CCCC(=O)O [PGE2, prostaglandin E2] was tested. Which IC50 did it give?
Its IC50 is 0.0007 µM.
